Data published in patent publication US9211310B2, “Use of a Chinese medicine composition in preparing medicaments for treating secondary prevention of myocardial infarction” (TASLY PHARMACEUTICAL GROUP CO., LTD, priority 2010, dated 2015).

System: patients after acute myocardial infarction
Assay: TCM symptom score, total and single (chest pain, chest tightness, short breath, fatigue, palpitation, spontaneous perspiration, pale complexion), same clinical trial
Type: in vivo, human
Parameters: total score of TCM symptom, Mean / total score of TCM symptom, Min / total score of TCM symptom, Max / total score of TCM symptom, Md / change of total score of TCM symptom, Mean / change of total score of TCM symptom, Max / change of total score of TCM symptom, Md: scale not given here
Conditions: FAS
Text: 3508 patients who were in accordance with the diagnostic standards of AMI for 28 days to 2 years and differentiated as Qi deficiency and blood stagnation syndrome by TCM were studied. 0.5 g Chinese medicine composition prepared by the method of EXAMPLE 1 (Coded as QSYQ) was administrated half an hour after meal, 3 times per day.
They included the overall survival time, angina pectoris score, TCM symptom score and life quality score, where angina pectoris score, TCM symptom score and life quality score were evaluated at randomization, in 1st, 3rd, 6th, 9th, 12th month after treatment and 18th month after follow-up.
The analysis method referred to the angina pectoris score.

[1] = 9 months after treatment-baseline
[2] = 12 months after treatment-baseline

Compound: CC(=O)Oc1ccccc1C(=O)O [Control group, aspirine]
- change of pale complexion −1, number of patients [1]: 59
- change of pale complexion −1, percent of patients [1]: (3.45%)
- change of palpitation 0, number of patients [1]: 948
- change of palpitation 0, percent of patients [1]: (55.44%)
- change of palpitation 1, number of patients [1]: 557
- change of palpitation 1, percent of patients [1]: (32.57%)
- change of palpitation 2, number of patients [1]: 76
- change of palpitation 2, percent of patients [1]: (4.44%)
- change of palpitation 3, number of patients [1]: 7
- change of palpitation 3, percent of patients [1]: (0.41%)
- change of palpitation −1, percent of patients [1]: (6.84%)
- change of palpitation −2, number of patients [1]: 5
- change of palpitation −2, percent of patients [1]: (0.29%)
- change of palpitation −3, number of patients [1]: 0
- change of palpitation −3, percent of patients [1]: (0.00%)
- change of short breath 0, % of patients [1]: (59.06%)
- change of short breath 0, number of patients [1]: 1010
- change of short breath 2, % of patients [1]: (30.35%)
- change of short breath 2, number of patients [1]: 519
- change of short breath 4, % of patients [1]: (3.57%)
- change of short breath 4, number of patients [1]: 61
- change of short breath 6, % of patients [1]: (0.47%)
- change of short breath 6, number of patients [1]: 8
- change of short breath −2, % of patients [1]: (6.26%)
- change of short breath −2, number of patients [1]: 107
- change of short breath −4, % of patients [1]: (0.23%)
- change of short breath −4, number of patients [1]: 4
- change of short breath −6, % of patients [1]: (0.06%)
- change of short breath −6, number of patients [1]: 1
- change of spontaneous perspiration 0, number of patients [1]: 910
- change of spontaneous perspiration 0, percent of patients [1]: (53.25%)
- change of spontaneous perspiration 1, number of patients [1]: 491
- change of spontaneous perspiration 1, percent of patients [1]: (28.73%)
- change of spontaneous perspiration 2, number of patients [1]: 113
- change of spontaneous perspiration 2, percent of patients [1]: (6.61%)
- change of spontaneous perspiration 3, number of patients [1]: 31
- change of spontaneous perspiration 3, percent of patients [1]: (1.81%)
- change of spontaneous perspiration −1, number of patients [1]: 154
- change of spontaneous perspiration −1, percent of patients [1]: (9.01%)
- change of spontaneous perspiration −2, number of patients [1]: 10
- change of spontaneous perspiration −2, percent of patients [1]: (0.59%)
- change of spontaneous perspiration −3, number of patients [1]: 0
- change of spontaneous perspiration −3, percent of patients [1]: (0.00%)
- change of total score of TCM symptom, Max [1]: 15.00
- change of total score of TCM symptom, Md [1]: −4.00
- change of total score of TCM symptom, Mean [1]: −4.52
- change of total score of TCM symptom, Min [1]: −33.00
- change of short breath 0, number of patients (12 months after treatment): 955
- distribution of total score of TCM symptom: Medium, number of patients (12 months after treatment): 235
- distribution of total score of TCM symptom: Medium, percentage of patients (12 months after treatment): (16.31%)
- distribution of total score of TCM symptom: Mild, number of patients (12 months after treatment): 1205
- distribution of total score of TCM symptom: Mild, percentage of patients (12 months after treatment): (83.62%)
- distribution of total score of TCM symptom: Severe, number of patients (12 months after treatment): 1
- distribution of total score of TCM symptom: Severe, percentage of patients (12 months after treatment): (0.07%)
- fatigue score 0, % of patients (12 months after treatment): (36.67%)
- fatigue score 0, number of patients (12 months after treatment): 630
- fatigue score 2, % of patients (12 months after treatment): (58.21%)
- fatigue score 2, number of patients (12 months after treatment): 1000
- fatigue score 4, % of patients (12 months after treatment): (4.42%)
- fatigue score 4, number of patients (12 months after treatment): 76
- fatigue score 6, % of patients (12 months after treatment): (0.70%)
- fatigue score 6, number of patients (12 months after treatment): 12
- pale complexion score 0, number of patients (12 months after treatment): 1011
- pale complexion score 0, percent of patients (12 months after treatment): (58.85%)
- pale complexion score 1, number of patients (12 months after treatment): 590
- pale complexion score 1, percent of patients (12 months after treatment): (34.34%)
- pale complexion score 2, number of patients (12 months after treatment): 104
- pale complexion score 2, percent of patients (12 months after treatment): (6.05%)
- pale complexion score 3, number of patients (12 months after treatment): 13
- pale complexion score 3, percent of patients (12 months after treatment): (0.76%)
- palpitation score 0, number of patients (12 months after treatment): 669
- palpitation score 0, percent of patients (12 months after treatment): (38.94%)
- palpitation score 2, number of patients (12 months after treatment): 892
- palpitation score 2, percent of patients (12 months after treatment): (51.92%)
- palpitation score 4, number of patients (12 months after treatment): 138
- palpitation score 4, percent of patients (12 months after treatment): (8.03%)
- palpitation score 6, number of patients (12 months after treatment): 19
- palpitation score 6, percent of patients (12 months after treatment): (1.11%)
- short breath score 0, % of patients (12 months after treatment): (31.72%)
- short breath score 0, number of patients (12 months after treatment): 545
- short breath score 3, % of patients (12 months after treatment): (57.92%)
- short breath score 3, number of patients (12 months after treatment): 995
- short breath score 6, % of patients (12 months after treatment): (10.07%)
- short breath score 6, number of patients (12 months after treatment): 173
- short breath score 9, % of patients (12 months after treatment): (0.29%)
- short breath score 9, number of patients (12 months after treatment): 5
- spontaneous perspiration score 0, number of patients (12 months after treatment): 845
- spontaneous perspiration score 0, percent of patients (12 months after treatment): (49.19%)
- spontaneous perspiration score 1, number of patients (12 months after treatment): 804
- spontaneous perspiration score 1, percent of patients (12 months after treatment): (46.80%)
- spontaneous perspiration score 2, number of patients (12 months after treatment): 58
- spontaneous perspiration score 2, percent of patients (12 months after treatment): (3.38%)
- spontaneous perspiration score 3, number of patients (12 months after treatment): 11
- spontaneous perspiration score 3, percent of patients (12 months after treatment): (0.64%)
- total score of TCM symptom, Max (12 months after treatment): 37.00
- total score of TCM symptom, Md (12 months after treatment): 8.00
- total score of TCM symptom, Mean (12 months after treatment): 8.41
- total score of TCM symptom, Min (12 months after treatment): 0.00
- change of fatigue 0, % of patients [2]: (47.08%)
- change of fatigue 0, number of patients [2]: 805
- change of fatigue 2, % of patients [2]: (35.38%)
- change of fatigue 2, number of patients [2]: 605
- change of fatigue 4, % of patients [2]: (9.59%)
- change of fatigue 4, number of patients [2]: 164
- change of fatigue 6, % of patients [2]: (1.46%)
- change of fatigue 6, number of patients [2]: 25
- change of fatigue −2, % of patients [2]: (5.85%)
- change of fatigue −2, number of patients [2]: 100
- change of fatigue −4, % of patients [2]: (0.64%)
- change of fatigue −4, number of patients [2]: 11
- change of fatigue −6, % of patients [2]: (0.00%)
- change of fatigue −6, number of patients [2]: 0
- change of pale complexion 0, number of patients [2]: 1202
- change of pale complexion 0, percent of patients [2]: (70.37%)
- change of pale complexion 1, number of patients [2]: 450
- change of pale complexion 1, percent of patients [2]: (26.35%)
- change of pale complexion −1, number of patients [2]: 56
- change of pale complexion −1, percent of patients [2]: (3.28%)
- change of palpitation 0, number of patients [2]: 882
- change of palpitation 0, percent of patients [2]: (51.58%)
- change of palpitation 1, number of patients [2]: 602
- change of palpitation 1, percent of patients [2]: (35.20%)
- change of palpitation 2, number of patients [2]: 102
- change of palpitation 2, percent of patients [2]: (5.96%)
